Assay results: ChEMBL document CHEMBL1144845, “Ligand binding efficiency: trends, physical basis, and implications” (J Med Chem, 2008)

Experiment: Binding affinity to carbonic anhydrase

Log Ki | SMILES
-6.6 | CC(C)(C)c1ccc(C(=O)Nc2ccccc2S(N)(=O)=O)cc1
-9.7 | CN1C(CN2CCOCC2)=Cc2sc(S(N)(=O)=O)cc2S1(=O)=O
-6.5 | Cc1ccc(S(N)(=O)=O)cc1 [P-TOLUENESULFONAMIDE]
